# Values of other authors in US11530413B2, “Compositions and methods to treat cancer” (NOVARTIS AG, priority 2017, dated 2022).
# Where two headings read alike, the source gives them in different places.
# Experiments:
# [1] = target: CDK2; conditions: read-out: Ki as CDK inhibitor
# [2] = target: T1, CBFB (Homo sapiens, UniProt Q13951); conditions: read-out: IC50 as CBFB inhibitor
# T1 sequence (Q13951 1-182): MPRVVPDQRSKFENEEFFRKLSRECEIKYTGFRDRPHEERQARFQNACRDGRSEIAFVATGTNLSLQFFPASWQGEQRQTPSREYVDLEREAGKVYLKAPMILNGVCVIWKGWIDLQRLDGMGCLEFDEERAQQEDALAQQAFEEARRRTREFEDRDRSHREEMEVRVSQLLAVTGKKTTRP
# [3] = test system: CDK; conditions: read-out: IC50 as multi-CDK inhibitor
# [4] = target: T2, CBFbeta association with Runx1 (Homo sapiens, UniProt Q13951)
# T2 sequence (Q13951 1-141 limits assumed): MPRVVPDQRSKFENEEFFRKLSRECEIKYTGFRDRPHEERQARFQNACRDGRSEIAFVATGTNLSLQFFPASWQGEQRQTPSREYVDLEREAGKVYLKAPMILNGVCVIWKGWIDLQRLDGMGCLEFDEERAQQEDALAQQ
# [5] = test system: GATA3; conditions: target of the IC50 not stated; named as GATA3 inhibitor; read-out: IC50 of the steroid
# [6] = target: T3, MITF (Homo sapiens, UniProt O75030); conditions: read-out: IC50 as MITF inhibitor
# T3 sequence (O75030 1-526): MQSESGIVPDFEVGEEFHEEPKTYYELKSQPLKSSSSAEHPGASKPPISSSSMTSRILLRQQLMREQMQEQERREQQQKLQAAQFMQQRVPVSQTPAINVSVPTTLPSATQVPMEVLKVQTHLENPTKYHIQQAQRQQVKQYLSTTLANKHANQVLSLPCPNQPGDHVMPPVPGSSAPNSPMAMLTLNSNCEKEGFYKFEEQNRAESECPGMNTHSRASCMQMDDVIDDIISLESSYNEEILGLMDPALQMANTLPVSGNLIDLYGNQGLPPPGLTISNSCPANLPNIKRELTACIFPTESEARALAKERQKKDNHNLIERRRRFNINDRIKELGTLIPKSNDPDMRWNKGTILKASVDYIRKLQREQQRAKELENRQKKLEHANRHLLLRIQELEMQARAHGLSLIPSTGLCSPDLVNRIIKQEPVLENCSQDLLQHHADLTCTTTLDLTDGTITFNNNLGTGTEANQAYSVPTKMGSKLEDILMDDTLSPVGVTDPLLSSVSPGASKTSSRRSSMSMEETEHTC
# [7] = target: T1, CBFB; conditions: read-out: IC50 as CBFB inhibitor; remark: listed apart in the source
# [8] = test system: FLI1; conditions: read-out: IC50 as FLI1 inhibitor
structure (smiles),measurement,setting,value
"CCNCc1cncc(-c2cccc3[nH]nc(-c4nc5c(F)cc(F)cc5[nH]4)c23)c1C [AG-024322, N-((5-(3-(4,6-difluoro-1H-benzo[d]imidazol-2-yl)-1H-indazol-4-yl)-4-methylpyridin-3-yl)methyl)ethanamine]",Ki,[1],1 to 3 nM
COc1cccnc1-c1nc2cc(OC(F)(F)F)ccc2[nH]1 [AI-10-104],IC50,[2],1250 nM
"O=C(NC1CCNCC1)c1n[nH]cc1NC(=O)c1c(Cl)cccc1Cl [AT7519, 4-[(2,6-Dichlorobenzoyl)amino]-N-(4-piperidinyl)-1H-pyrazole-3-carboxamide]",IC50,[3],10 to 210 nM
"CCc1sc(N)nc1-c1ccc(OC)cc1 [CBFB inhibitor, 5-ethyl-4-(4-methoxyphenyl)-2-thiazolamine]","IC50, binds CBFbeta and prevents its association with Runx1",[4],3200 nM
"C[C@@H]1C[C@H]2[C@@H]3CCC4=CC(=O)C=C[C@]4(C)[C@@]3(F)[C@@H](O)C[C@]2(C)[C@@]1(O)C(=O)CO [Dexamethasone, (8S,9R,10S,11S,13S,14S,16R,17R)-9-Fluoro-11,17-dihydroxy-17-(2-hydroxyacetyl)-10,13,16-trimethyl-6,7,8,9,10,11,12,13,14,15,16,17-dodecahydro-3H-cyclopenta[a]phenanthren-3-one]",IC50,[5],10 nM
"CN1CC[C@H](c2c(O)cc(O)c3c(=O)cc(-c4ccccc4Cl)oc23)[C@H](O)C1 [Flavopiridol, 2-(2-chlorophenyl)-5,7-dihydroxy-8-[(3S,4R)-3-hydroxy-1-methyl-4-piperidinyl]-4-chromenone]",IC50,[3],~40 nM
"NS(=O)(=O)c1ccc(NC2=CC(=O)c3ccccc3C2=O)cc1 [ML329, 4-((1,4-dioxo-1,4-dihydronaphthalen-2-yl)amino)benzenesulfonamide]",IC50,[6],1200 nM
"O=C1CN=C(c2ccc[nH]2)c2cc(Cl)ccc2N1 [Ro5-3335, 7-Chloro-1,3-dihydro-5-(1H-pyrrol-2-yl)-2H-1,4-benzodiazepin-2-one]",IC50,[7],1100 nM
"COc1ccc(C(=O)C[C@]2(O)C(=O)Nc3c(Cl)ccc(Cl)c32)cc1 [TK-216, 4,7-dichloro-1,3-dihydro-3-hydroxy-3-[2-(4-methoxyphenyl)-2-oxoethyl]-(3R)-2H-indol-2-one]",IC50,[8],449 nM
